Measurements: the supplement of paper PMC10307832

Legend:
Assay in all cases: relative viability (nuclei count vs DMSO), 5 days (fraction); higher = more cells survive
CUDC-101 + Dasatinib = compound: C#Cc1cccc(Nc2ncnc3cc(OC)c(OCCCCCCC(=O)NO)cc23)c1 [CUDC-101] + Cc1nc(Nc2ncc(C(=O)Nc3c(C)cccc3Cl)s2)cc(N2CCN(CCO)CC2)n1 [Dasatinib] (partner 0.075 µM)
Method in brief: (§1)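 Nuclei were stained with Hoechst during a one-step fixation (final 0.05% Triton X-100, 1% formaldehyde, 1 ug/ml Hoechst) carried out 5 days after dosing, then counted on 4× images. The cells, lung cancer lines in 1536-well plates, had been dosed by pin tool the day after seeding with one drug alone or a fixed anchor-drug dose plus five library-drug doses (not always all listed) in √10 steps. Relative viability is the nuclei count in treated wells divided by that in vehicle wells, and each value is the median of duplicate plates.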

Vandetanib + Linsitinib = compound: COc1cc2/c(=N/c3ccc(Br)cc3F)nc[nH]c2cc1OCC1CCN(C)CC1 [Vandetanib] + C[C@]1(O)C[C@@H](c2nc(-c3ccc4ccc(-c5ccccc5)nc4c3)c3c(N)nccn32)C1 [Linsitinib] (partner 1 µM)
Method in brief: as §1

Vandetanib + Dasatinib = compound: COc1cc2/c(=N/c3ccc(Br)cc3F)nc[nH]c2cc1OCC1CCN(C)CC1 [Vandetanib] + Cc1nc(Nc2ncc(C(=O)Nc3c(C)cccc3Cl)s2)cc(N2CCN(CCO)CC2)n1 [Dasatinib] (partner 0.075 µM)
Method in brief: as §1

Vandetanib + Pemetrexed = compound: COc1cc2/c(=N/c3ccc(Br)cc3F)nc[nH]c2cc1OCC1CCN(C)CC1 [Vandetanib] + Nc1nc2[nH]cc(CCc3ccc(C(=O)N[C@@H](CCC(=O)O)C(=O)O)cc3)c2c(=O)[nH]1 [Pemetrexed] (partner 0.2 µM)
Method in brief: as §1

Row | Cell Line | relative viability (CUDC-101 + Dasatinib; first compound 0.01 µM) | relative viability (CUDC-101 + Dasatinib; first compound 0.03162 µM) | relative viability (CUDC-101 + Dasatinib; first compound 0.1 µM) | relative viability (CUDC-101 + Dasatinib; first compound 0.3162 µM) | relative viability (CUDC-101 + Dasatinib; first compound 1 µM) | relative viability (Vandetanib + Linsitinib; first compound 0.02 µM) | relative viability (Vandetanib + Linsitinib; first compound 0.06325 µM) | relative viability (Vandetanib + Linsitinib; first compound 0.2 µM) | relative viability (Vandetanib + Linsitinib; first compound 0.6325 µM) | relative viability (Vandetanib + Linsitinib; first compound 2 µM) | relative viability (Vandetanib + Dasatinib; first compound 0.02 µM) | relative viability (Vandetanib + Dasatinib; first compound 0.06325 µM) | relative viability (Vandetanib + Dasatinib; first compound 0.2 µM) | relative viability (Vandetanib + Dasatinib; first compound 0.6325 µM) | relative viability (Vandetanib + Dasatinib; first compound 2 µM) | relative viability (Vandetanib + Pemetrexed; first compound 0.02 µM) | relative viability (Vandetanib + Pemetrexed; first compound 0.06325 µM) | relative viability (Vandetanib + Pemetrexed; first compound 0.2 µM) | relative viability (Vandetanib + Pemetrexed; first compound 0.6325 µM) | relative viability (Vandetanib + Pemetrexed; first compound 2 µM)
1 | LXF-289 | 0.248 | 0.203 | 0.245 | 0.394 | 0.182 | 0.949 | 0.942 | 0.957 | 0.971 | 0.967 | 0.24 | 0.218 | 0.107 | 0.257 | 0.253 | 0.916 | 0.949 | 0.885 | 0.909 | 0.889
2 | 201T | 0.578 | 0.563 | 0.579 | 0.591 | 0.511 | 1.08 | 0.936 | 0.989 | 0.944 | 1.01 | 0.573 | 0.527 | 0.578 | 0.589 | 0.575 | 0.345 | 0.34 | 0.328 | 0.338 | 0.306
3 | LCLC-103H | 0.524 | 0.384 | 0.451 | 0.478 | 0.46 | 1.09 | 1 | 1.23 | 0.929 | 1.03 | 0.511 | 0.422 | 0.43 | 0.424 | 0.47 | 0.497 | 0.493 | 0.478 | 0.48 | 0.5
4 | NCI-H520 | 0.196 | 0.166 | 0.192 | 0.259 | 0.218 | 0.886 | 1.1 | 0.942 | 0.904 | 0.912 | 0.139 | 0.228 | 0.218 | 0.191 | 0.225 | 0.705 | 0.646 | 0.607 | 0.783 | 0.679
5 | RERF-LC-KJ | 0.793 | 0.891 | 0.765 | 0.793 | 0.421 | 0.922 | 0.859 | 0.939 | 0.835 | 0.763 | 0.767 | 0.868 | 0.756 | 0.758 | 0.683 | 0.46 | 0.459 | 0.497 | 0.418 | 0.46
6 | NCI-H1975 | 0.287 | 0.373 | 0.315 | 0.413 | 0.331 | 0.902 | 0.801 | 0.897 | 0.803 | 0.902 | 0.349 | 0.361 | 0.341 | 0.423 | 0.373 | 0.296 | 0.275 | 0.268 | 0.285 | 0.306
7 | PC-3 [JPC-3] | 0.954 | 0.932 | 0.753 | 0.483 | 0.542 | 0.946 | 0.882 | 0.963 | 0.876 | 0.522 | 0.952 | 0.865 | 0.954 | 0.497 | 0.571 | 1.21 | 0.937 | 0.824 | 0.65 | 0.374
8 | EPLC-272H | 0.448 | 0.364 | 0.316 | 0.357 | 0.183 | 1.21 | 0.971 | 1.11 | 1.13 | 1.18 | 0.301 |  | 0.415 | 0.352 | 0.321 | 0.447 | 0.299 | 0.399 | 0.341 | 0.287
